# Assay results from ChEMBL document CHEMBL1201862, “PubChem BioAssay data set” (2004).
# The source made the active and inactive calls.
# What was measured:
# [1] = molecular target: T1, Voltage-gated N-type calcium channel alpha-1B subunit/Amyloid beta A4 precursor protein-binding family A member 1 (Homo sapiens, UniProt Q00975+Q02410); format: protein assay
# [2] = non-specific 3'UTR reporter inhibition in Clone20-Shn3RL – cell-based, Renilla luciferase, cherry-picked, counter-screen for Shn3 inhibitor project, dose response (AID 624133); format: functional
# [3] = molecular target: T1, Voltage-gated N-type calcium channel alpha-1B subunit/Amyloid beta A4 precursor protein-binding family A member 1; format: protein assay; remark: listed apart in the source
# [4] = molecular target: Glucose-6-phosphate 1-dehydrogenase (Homo sapiens, UniProt P11413); assay: inhibition of Homo sapiens G6PD, dose series – biochemical, fluorescence, selectivity assay for P. falciparum G6PD inhibitor project, dose response (AID 504792); format: functional
# [5] = molecular target: DNA dC->dU-editing enzyme APOBEC-3G (Homo sapiens, UniProt Q9HC16); assay: Dose Response confirmation of small molecule APOBEC3G DNA Deaminase Inhibitors via a fluorescence-based single-stranded DNA deaminase assay. [Related pubchem assays (depositor defined):AID493012, AID493028]; format: functional
# [6] = loss of viability in HepG2 cells – cell-based, CellTiter-Glo, cherry-picked, cytotoxicity control for Shn3 inhibitor project, dose response (AID 624134); format: functional
# [7] = viability of HCT116 lacking mutant beta-catenin – cell-based, human colon tumor, dose response (AID 1045); format: functional;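 further: HCT116 colon tumor cells with beta catenin knocked out; cells exposed to compound for 60 hours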
# [8] = viability of PTEN-deleted HCT116 cells – cell-based, HCT116 PTEN knockout, dose response (AID 1047); format: functional;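 further: HCT116 colon tumor cells with PTEN knocked out; cells exposed to compound for 60 hours before readout; potency for loss of cell viability measured by luminescence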
# [9] = reduction of Shn3 3'UTR-driven luciferase in osteoblasts – cell-based, Clone20 osteoblasts, firefly luciferase, cherry-picked, dose response (AID 624132); format: functional;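 further: firefly luciferase luminescence from reporter carrying the Shn3 3'UTR in osteoblasts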
# Cytochrome P450 3A4 = Cytochrome P450 3A4 (Homo sapiens, UniProt P08684); conditions: Potency;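 further: confirmatory qHTS run detecting inhibitors and substrates of CYP3A4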
# Cytochrome P450 2C9 = Cytochrome P450 2C9 (Homo sapiens, UniProt P11712); conditions: Potency
# Chain of Cytochrome P450 2C9 (P11712 whole entry): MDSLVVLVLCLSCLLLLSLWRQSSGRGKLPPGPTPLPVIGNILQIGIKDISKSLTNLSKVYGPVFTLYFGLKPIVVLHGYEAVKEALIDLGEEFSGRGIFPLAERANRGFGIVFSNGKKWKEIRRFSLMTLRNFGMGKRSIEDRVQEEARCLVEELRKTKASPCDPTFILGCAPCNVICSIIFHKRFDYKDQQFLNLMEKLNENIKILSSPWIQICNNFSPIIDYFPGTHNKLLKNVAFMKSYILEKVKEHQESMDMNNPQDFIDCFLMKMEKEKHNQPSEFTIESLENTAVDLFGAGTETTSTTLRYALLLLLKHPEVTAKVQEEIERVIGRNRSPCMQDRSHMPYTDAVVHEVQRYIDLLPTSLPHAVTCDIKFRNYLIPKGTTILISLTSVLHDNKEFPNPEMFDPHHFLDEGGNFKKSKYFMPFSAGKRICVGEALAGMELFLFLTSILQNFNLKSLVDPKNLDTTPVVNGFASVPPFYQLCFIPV
# [10] = viability of uninfected HEp-2 cells – cell-based, HTS, cytotoxicity control for RSV inhibitor project, dose response (AID 2410); format: functional; conditions: human respiratory syncytial virus
# [11] = molecular target: Glyceraldehyde-3-phosphate dehydrogenase (Homo sapiens, UniProt P04406)
# Chain of Glyceraldehyde-3-phosphate dehydrogenase (P04406 whole entry): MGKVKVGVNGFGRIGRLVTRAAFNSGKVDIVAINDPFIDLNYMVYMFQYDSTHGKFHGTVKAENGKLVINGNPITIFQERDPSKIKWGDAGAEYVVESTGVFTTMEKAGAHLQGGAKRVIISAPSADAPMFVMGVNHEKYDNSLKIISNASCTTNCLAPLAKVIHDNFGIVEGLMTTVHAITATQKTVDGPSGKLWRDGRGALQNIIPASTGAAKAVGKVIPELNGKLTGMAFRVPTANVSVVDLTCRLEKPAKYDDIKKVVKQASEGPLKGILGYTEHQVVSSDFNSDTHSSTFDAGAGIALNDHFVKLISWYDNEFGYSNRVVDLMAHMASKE
# [12] = molecular target: T2, Alkaline phosphatase, tissue-nonspecific isozyme (Homo sapiens, UniProt P05186); assay: potency against alkaline phosphatase TNAP – biochemical, luminescent, dose response, SAR follow-up (AID 1056)
# T2 sequence (P05186 whole entry): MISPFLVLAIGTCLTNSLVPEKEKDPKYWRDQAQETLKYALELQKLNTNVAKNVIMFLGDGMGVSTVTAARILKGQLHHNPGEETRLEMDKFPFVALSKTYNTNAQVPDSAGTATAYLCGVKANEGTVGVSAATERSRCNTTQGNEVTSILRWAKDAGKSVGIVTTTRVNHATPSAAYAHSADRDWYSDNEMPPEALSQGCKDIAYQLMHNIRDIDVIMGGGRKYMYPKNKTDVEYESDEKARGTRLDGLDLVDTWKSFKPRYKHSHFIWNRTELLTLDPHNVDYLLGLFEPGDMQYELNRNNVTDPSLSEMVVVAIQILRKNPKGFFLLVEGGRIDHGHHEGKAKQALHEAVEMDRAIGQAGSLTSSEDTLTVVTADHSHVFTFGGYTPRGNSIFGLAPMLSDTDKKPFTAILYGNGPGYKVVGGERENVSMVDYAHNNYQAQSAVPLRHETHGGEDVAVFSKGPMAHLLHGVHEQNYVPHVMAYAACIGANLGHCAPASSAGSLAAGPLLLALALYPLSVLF
# Beta-galactosidase = Beta-galactosidase (Escherichia coli, UniProt Q8VNN2); assay: detection-enzyme interference by beta-gal modulators – biochemical, E. coli enzyme, set 3, artefact control for CCR6 antagonist project, dose response (AID 504712); format: functional
# Chain of Beta-galactosidase (Q8VNN2 whole entry): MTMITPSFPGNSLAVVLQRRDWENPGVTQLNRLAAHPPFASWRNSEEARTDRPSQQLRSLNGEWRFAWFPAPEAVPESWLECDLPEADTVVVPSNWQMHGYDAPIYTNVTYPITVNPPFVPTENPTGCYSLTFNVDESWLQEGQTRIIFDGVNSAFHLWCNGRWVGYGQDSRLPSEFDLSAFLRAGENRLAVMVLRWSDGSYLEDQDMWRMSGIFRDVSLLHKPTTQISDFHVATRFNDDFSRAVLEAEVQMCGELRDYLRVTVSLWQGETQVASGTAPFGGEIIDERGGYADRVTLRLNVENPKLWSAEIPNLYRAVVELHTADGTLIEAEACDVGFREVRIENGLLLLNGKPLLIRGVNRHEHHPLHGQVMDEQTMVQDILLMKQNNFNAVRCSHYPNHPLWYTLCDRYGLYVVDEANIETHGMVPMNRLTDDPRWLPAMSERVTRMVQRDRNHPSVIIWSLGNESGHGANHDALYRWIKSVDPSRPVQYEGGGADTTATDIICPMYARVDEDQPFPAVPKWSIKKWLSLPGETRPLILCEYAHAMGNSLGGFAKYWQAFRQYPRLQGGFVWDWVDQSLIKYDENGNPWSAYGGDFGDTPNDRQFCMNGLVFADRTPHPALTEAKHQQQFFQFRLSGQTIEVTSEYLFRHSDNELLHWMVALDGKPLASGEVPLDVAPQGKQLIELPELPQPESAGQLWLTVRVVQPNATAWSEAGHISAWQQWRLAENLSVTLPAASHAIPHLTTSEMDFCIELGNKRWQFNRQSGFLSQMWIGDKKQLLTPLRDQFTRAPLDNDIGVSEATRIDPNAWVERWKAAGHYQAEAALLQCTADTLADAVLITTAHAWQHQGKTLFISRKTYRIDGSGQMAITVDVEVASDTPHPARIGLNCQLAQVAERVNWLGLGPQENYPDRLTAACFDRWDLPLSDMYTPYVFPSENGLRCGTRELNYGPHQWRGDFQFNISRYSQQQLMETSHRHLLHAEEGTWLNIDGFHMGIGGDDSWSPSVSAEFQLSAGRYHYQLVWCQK
# [13] = molecular target: T3, Ubiquitin-conjugating enzyme E2 N (Homo sapiens, UniProt P61088); format: functional
# T3 sequence (P61088 whole entry): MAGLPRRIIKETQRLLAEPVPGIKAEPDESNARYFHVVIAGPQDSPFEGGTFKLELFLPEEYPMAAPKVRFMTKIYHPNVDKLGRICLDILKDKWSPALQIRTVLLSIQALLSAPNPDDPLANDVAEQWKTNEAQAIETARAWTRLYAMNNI
# Bcl-2-related protein A1 = molecular target: T4, Bcl-2-related protein A1 (Mus musculus, UniProt Q07440); format: functional;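 further: confirmatory dose–response counterscreen on Bfl-1, used to check hits from a UBC13 polyubiquitin inhibitor campaign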
# T4 sequence (Q07440 whole entry): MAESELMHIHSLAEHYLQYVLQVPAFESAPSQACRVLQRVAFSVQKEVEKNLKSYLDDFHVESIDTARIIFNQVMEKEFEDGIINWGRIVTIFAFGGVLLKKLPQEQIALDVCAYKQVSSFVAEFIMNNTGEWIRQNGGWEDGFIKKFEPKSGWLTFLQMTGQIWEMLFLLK
# [14] = molecular target: T3, Ubiquitin-conjugating enzyme E2 N; format: functional; remark: listed apart in the source
# T1 sequence (Q00975 whole entry): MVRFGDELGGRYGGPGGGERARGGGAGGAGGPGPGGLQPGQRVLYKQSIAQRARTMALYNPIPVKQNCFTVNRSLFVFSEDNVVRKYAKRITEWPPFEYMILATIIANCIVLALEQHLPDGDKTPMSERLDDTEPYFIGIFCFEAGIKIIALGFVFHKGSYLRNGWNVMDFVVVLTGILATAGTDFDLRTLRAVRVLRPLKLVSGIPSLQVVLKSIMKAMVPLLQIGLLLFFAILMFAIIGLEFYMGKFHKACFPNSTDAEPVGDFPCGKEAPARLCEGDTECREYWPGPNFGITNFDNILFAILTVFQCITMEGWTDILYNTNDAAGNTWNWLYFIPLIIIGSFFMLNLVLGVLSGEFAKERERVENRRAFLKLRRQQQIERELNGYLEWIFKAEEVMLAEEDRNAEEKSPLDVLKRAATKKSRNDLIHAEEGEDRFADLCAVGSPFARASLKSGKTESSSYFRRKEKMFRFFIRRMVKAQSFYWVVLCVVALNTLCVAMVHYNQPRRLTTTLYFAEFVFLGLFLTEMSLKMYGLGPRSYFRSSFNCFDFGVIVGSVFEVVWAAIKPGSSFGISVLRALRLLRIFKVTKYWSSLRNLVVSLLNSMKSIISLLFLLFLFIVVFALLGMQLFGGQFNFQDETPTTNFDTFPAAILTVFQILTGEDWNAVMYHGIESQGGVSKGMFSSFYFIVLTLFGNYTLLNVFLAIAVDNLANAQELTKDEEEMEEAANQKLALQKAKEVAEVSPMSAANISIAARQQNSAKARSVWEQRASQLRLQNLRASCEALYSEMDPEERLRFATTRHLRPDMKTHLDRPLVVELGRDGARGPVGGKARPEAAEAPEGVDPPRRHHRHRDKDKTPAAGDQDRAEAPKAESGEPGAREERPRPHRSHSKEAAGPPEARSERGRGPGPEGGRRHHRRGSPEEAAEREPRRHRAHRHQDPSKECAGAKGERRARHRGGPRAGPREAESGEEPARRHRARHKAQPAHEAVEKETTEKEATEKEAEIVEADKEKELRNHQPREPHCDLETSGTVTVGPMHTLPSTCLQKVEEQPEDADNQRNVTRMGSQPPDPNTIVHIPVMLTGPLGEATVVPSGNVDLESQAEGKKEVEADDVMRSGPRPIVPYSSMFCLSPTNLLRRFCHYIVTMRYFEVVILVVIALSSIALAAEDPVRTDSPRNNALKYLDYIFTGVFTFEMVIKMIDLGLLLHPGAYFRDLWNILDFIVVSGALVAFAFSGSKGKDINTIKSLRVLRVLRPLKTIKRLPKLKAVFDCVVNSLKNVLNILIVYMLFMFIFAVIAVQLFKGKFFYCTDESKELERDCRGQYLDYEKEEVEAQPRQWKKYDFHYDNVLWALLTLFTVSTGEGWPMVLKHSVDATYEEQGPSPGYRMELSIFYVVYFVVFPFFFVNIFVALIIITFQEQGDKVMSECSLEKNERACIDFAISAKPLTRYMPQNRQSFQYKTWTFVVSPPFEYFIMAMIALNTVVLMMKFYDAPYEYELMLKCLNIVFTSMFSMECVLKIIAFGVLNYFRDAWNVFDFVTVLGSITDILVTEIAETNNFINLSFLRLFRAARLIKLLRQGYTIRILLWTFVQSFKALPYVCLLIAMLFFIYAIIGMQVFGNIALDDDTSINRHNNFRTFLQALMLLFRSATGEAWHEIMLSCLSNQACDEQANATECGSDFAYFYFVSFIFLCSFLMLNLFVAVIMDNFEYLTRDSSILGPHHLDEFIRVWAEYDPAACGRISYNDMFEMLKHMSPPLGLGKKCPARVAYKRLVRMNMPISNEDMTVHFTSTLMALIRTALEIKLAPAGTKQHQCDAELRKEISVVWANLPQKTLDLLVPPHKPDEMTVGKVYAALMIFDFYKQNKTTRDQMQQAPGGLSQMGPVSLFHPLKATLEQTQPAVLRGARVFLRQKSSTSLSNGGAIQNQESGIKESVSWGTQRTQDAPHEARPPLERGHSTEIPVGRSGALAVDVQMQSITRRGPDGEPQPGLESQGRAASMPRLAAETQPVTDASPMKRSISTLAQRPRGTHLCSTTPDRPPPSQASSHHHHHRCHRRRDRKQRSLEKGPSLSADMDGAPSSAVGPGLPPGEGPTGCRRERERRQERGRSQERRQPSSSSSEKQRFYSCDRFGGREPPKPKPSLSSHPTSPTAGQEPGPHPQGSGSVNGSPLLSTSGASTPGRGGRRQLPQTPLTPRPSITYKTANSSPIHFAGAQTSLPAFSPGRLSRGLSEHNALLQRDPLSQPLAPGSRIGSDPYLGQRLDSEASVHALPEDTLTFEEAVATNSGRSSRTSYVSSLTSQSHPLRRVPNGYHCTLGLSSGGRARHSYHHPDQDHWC
# T1 sequence (Q02410 whole entry): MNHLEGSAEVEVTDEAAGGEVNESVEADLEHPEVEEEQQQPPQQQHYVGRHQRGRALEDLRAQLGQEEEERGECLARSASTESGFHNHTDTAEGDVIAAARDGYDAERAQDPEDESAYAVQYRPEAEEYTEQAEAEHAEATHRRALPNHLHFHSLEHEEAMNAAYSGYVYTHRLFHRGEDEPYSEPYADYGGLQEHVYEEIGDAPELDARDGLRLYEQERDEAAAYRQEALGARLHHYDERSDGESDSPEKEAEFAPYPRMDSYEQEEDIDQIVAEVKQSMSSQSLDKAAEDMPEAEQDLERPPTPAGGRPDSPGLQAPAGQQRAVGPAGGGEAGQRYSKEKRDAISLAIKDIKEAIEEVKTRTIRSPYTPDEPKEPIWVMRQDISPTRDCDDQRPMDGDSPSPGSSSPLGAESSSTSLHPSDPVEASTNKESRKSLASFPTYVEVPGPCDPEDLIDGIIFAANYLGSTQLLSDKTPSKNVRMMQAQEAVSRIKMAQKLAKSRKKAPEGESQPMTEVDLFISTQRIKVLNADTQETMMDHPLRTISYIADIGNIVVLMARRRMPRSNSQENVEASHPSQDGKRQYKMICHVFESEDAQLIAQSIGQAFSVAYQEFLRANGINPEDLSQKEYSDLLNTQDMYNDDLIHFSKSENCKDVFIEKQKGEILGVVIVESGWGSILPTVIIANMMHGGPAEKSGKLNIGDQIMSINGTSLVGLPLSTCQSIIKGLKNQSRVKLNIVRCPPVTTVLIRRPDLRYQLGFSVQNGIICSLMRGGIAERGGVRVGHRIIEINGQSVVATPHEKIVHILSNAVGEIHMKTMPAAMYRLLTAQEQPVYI
structure (smiles),measurement,setting,value
CCOC(=O)C1CCCN(C(=O)Cn2sc3nc(C)cc(C)c3c2=O)C1 (stereo unspecified),IC50,[1],12.6 µM (active)
same,AC50,[2],7.5 µM (active)
same,IC50,[3],> 50 µM (inactive)
same,IC50,[4],47.1 µM (inactive)
same,IC50,[5],6.17 µM (active)
same,AC50,[6],> 70 µM (inactive)
same,EC50,[7],21.6 µM (active)
same,EC50,[8],25.9 µM (active)
same,AC50,[9],12.5 µM (active)
COC(=O)NC(/C(C(=O)OC)=C(\C)NCc1ccccc1)c1ccc2ccccc2c1 (stereo unspecified),AC50,Cytochrome P450 3A4,3.98 µM (inconclusive)
same,AC50,Cytochrome P450 2C9,1 µM (inconclusive)
COc1cc(-c2nnc(SCc3c(F)cccc3Cl)o2)cc(OC)c1OC,CC50,[10],29.9 µM (active)
same,IC50,cells,9.1 µM (active)
Cc1c(CC(=O)N2CCN(C(=O)C3COc4ccccc4O3)CC2)c(=O)oc2cc(O)cc(O)c12 (stereo unspecified),IC50,cells,3.62 µM (active)
COc1ccccc1NS(=O)(=O)c1ccc(OC)c2ncccc12,IC50,[11],> 100 µM (not active)
same,IC50,[12],> 100 µM (inactive)
CCCOc1ccc(CN(CCC#N)C(=S)NC(=O)c2ccccc2)cc1,IC50,Beta-galactosidase,> 66.6 µM (inactive)
CCOC(=O)c1cc(-c2cccc(C(F)(F)F)c2)n[nH]1,IC50,[11],> 100 µM (not active)
same,IC50,[12],> 100 µM (inactive)
NCCC[C@@H](CC(=O)N[C@@H]1CCNC[C@H]1C(=O)N[C@H](CC(=O)N[C@@H](CCC(=O)O)CC(=O)O)Cc1c[nH]c2ccccc12)NC(=O)C[C@H](CO)NC(=O)[C@@H]1CNCC[C@H]1N,AC50,Cytochrome P450 2C9,39.8 µM (inconclusive)
CCOc1cc(C)ccc1S(=O)(=O)Nc1cccnc1,IC50,[11],> 100 µM (not active)
same,IC50,[12],> 100 µM (inactive)
COc1ccc(NS(=O)(=O)c2cc(C(=O)N3CCC3)ccc2C)cc1,IC50,[13],19.8 µM (active)
same,IC50,Bcl-2-related protein A1,> 20 µM (inactive)
same,IC50,[14],> 20 µM (inactive)
C#CCOCCOCCOCCNc1nc(N2CCN(C(=O)C([C@@H](C)O)n3cc([C@@H](N)CCCCN)nn3)CC2)nc(N2CCN(C(=O)[C@H](CCCN=C(N)N)n3cc(C(N)[C@@H](C)CC)nn3)CC2)n1 (stereo partly specified),IC50,[13],12.1 µM (active)
same,IC50,Bcl-2-related protein A1,> 20 µM (inactive)
same,IC50,[14],7.99 µM (active)
O=[N+]([O-])c1ccc(N/N=C/c2cccc(O)c2O)cc1,IC50,Beta-galactosidase,> 66.6 µM (inactive)
O=c1cc(-c2ccccc2O)oc2ccc3ccccc3c12,AC50,Cytochrome P450 3A4,31.6 µM (inconclusive)
same,AC50,Cytochrome P450 2C9,31.6 µM (inconclusive)
